Literature values in Sander's compilation of Henry's law constants.
Values joined by “and” are separate entries in the source; they are usually repeats but may differ in a detail not shown here. Identical values can stand only once.

Experiment: Henry solubility constant Hcp at 298.15 K (mol/(m3 Pa))
Conditions: cited value
[1] = reference: Barcelo and Hennion (1997)
[2] = reference: Fogg and Sangster (2003)
[3] = reference: Burkholder et al. (2015)
[4] = reference: Burkholder et al. (2019)
[5] = reference: Sander et al. (2006)
[6] = reference: Sander et al. (2011)

CCOC(=O)CC [ethyl propanoate]
Henry solubility constant Hcp (reference: Brockbank (2013)): 0.038

Cc1ccccc1N [2-methylbenzenamine]
Henry solubility constant Hcp (reference: Brockbank (2013)): 4.8

CCOP(=O)(OCC)OC(=CCl)c1ccc(Cl)cc1Cl [chlorfenvinphos]
Henry solubility constant Hcp [1]: 35

c1ccc2c(c1)ccc1ccccc12 [phenanthrene]
Henry solubility constant Hcp (reference: Brockbank (2013)): 0.34
Henry solubility constant Hcp [2]: 0.23
Henry solubility constant Hcp (reference: Goldstein (1982)): 0.093
Henry solubility constant Hcp (reference: McCarty (1980)): 0.076

CCC(C)n1c(=O)[nH]c(C)c(Br)c1=O (stereo not drawn) [bromacil]
Henry solubility constant Hcp [1]: 5.2

CCOP(=S)(OCC)Oc1nc(Cl)c(Cl)cc1Cl [chlorpyrifos]
Henry solubility constant Hcp [1]: 0.0056
Henry solubility constant Hcp (reference: HSDB (2015)): 3.4
Henry solubility constant Hcp (reference: Muir et al. (2004)): 1.8 and 2.1

COC(=O)c1ccccc1S(=O)(=O)NC(=O)N(C)c1nc(C)nc(OC)n1 [tribenuron-methyl]
Henry solubility constant Hcp (reference: MacBean (2012b)): 9.7e+07

CCCCCC [hexane]
Henry solubility constant Hcp (reference: Brockbank (2013)): 5.7e-06

CCCCCCC(C)O (stereo not drawn) [2-octanol]
Henry solubility constant Hcp (reference: Brockbank (2013)): 0.27

CCC(C)OC(C)=O (stereo not drawn) [2-butyl ethanoate]
Henry solubility constant Hcp (reference: Brockbank (2013)): 0.023

CCNc1nc(NC(C)(C)C)nc(SC)n1 [terbutryn]
Henry solubility constant Hcp [1]: 7.6

OC[C@@H](O)[C@@H](O)CO [2(R),3(S)-1,2,3,4-butanetetrol]
Henry solubility constant Hcp [3]: 1.1e+10
Henry solubility constant Hcp [4]: 1.1e+10

Brc1ccc(Oc2ccc(Br)cc2)cc1 [4,4'-dibromodiphenyl ether]
Henry solubility constant Hcp (reference: Wania and Dugani (2003)): 0.24

CCNc1nc(Cl)nc(NCC)n1 [simazine]
Henry solubility constant Hcp [1]: 29

Fc1ccccc1 [fluorobenzene]
Henry solubility constant Hcp (reference: Brockbank (2013)): 0.0015

CCCCCCCCSC(=O)Oc1cc(Cl)nnc1-c1ccccc1 [pyridate]
Henry solubility constant Hcp [1]: 300

CCOP(=S)(OCC)Oc1ccc([N+](=O)[O-])cc1 [parathion]
Henry solubility constant Hcp [1]: 0.8
Henry solubility constant Hcp (reference: MacBean (2012b)): 33

CNC(C)=O [N-methylacetamide]
Henry solubility constant Hcp [3]: 2100
Henry solubility constant Hcp [4]: 2100

CCOP(=S)(OCC)SCSCC [phorate]
Henry solubility constant Hcp [1]: 0.015

CCCCOCCOCCOCCCC [diethylene glycol dibutyl ether]
Henry solubility constant Hcp (reference: Brockbank (2013)): 2.5

CNC(=O)ON=C(C)SC [methomyl]
Henry solubility constant Hcp [1]: 150

CCc1cccc2ccccc12 [1-ethylnaphthalene]
Henry solubility constant Hcp (reference: Brockbank (2013)): 0.02
Henry solubility constant Hcp (reference: Mackay et al. (1992b)): 0.026

CCOC(=O)CC(C)C [ethyl 3-methylbutanoate]
Henry solubility constant Hcp (reference: Brockbank (2013)): 0.014

C1=Cc2cccc3cccc1c23 [acenaphthylene]
Henry solubility constant Hcp (reference: Brockbank (2013)): 0.085
Henry solubility constant Hcp [2]: 0.091

CCCC(=O)CC [3-hexanone]
Henry solubility constant Hcp (reference: Brockbank (2013)): 0.079

CCCCC(=O)CC [3-heptanone]
Henry solubility constant Hcp (reference: Brockbank (2013)): 0.072

OBr [hypobromous acid]
Henry solubility constant Hcp [3]: > 13
Henry solubility constant Hcp [4]: > 13

CCOC(=O)COc1cc(-c2nn(C)c(OC(F)F)c2Cl)c(F)cc1Cl [pyraflufen-ethyl]
Henry solubility constant Hcp (reference: MacBean (2012b)): 12000

CCCCCc1ccccc1 [pentylbenzene]
Henry solubility constant Hcp (reference: Brockbank (2013)): 0.0006

N#Cc1c(Cl)c(Cl)c(Cl)c(C#N)c1Cl [2,4,5,6-tetrachloro-1,3-dicyanobenzene]
Henry solubility constant Hcp (reference: MacBean (2012b)): 39

Cc1ccc(O)cc1 [1-hydroxy-4-methylbenzene]
Henry solubility constant Hcp (reference: Brockbank (2013)): 13
Henry solubility constant Hcp (reference: Gaffney and Senum (1984)): 9.9
Henry solubility constant Hcp (reference: Howard (1989)): 10

CC1(C(=O)Nc2ccc(O)c(Cl)c2Cl)CCCCC1 [fenhexamid]
Henry solubility constant Hcp (reference: MacBean (2012b)): 200000

NCl [chloramine]
Henry solubility constant Hcp [3]: 0.86
Henry solubility constant Hcp [4]: 0.86
Henry solubility constant Hcp [5]: 0.86
Henry solubility constant Hcp [6]: 0.86

CCCOC(=O)CC [propyl propanoate]
Henry solubility constant Hcp (reference: Brockbank (2013)): 0.026

CCCC(C)=O [2-pentanone]
Henry solubility constant Hcp (reference: Brockbank (2013)): 0.13
Henry solubility constant Hcp (reference: Mackay et al. (1995)): 0.17

CF [fluoromethane]
Henry solubility constant Hcp (reference: Brockbank (2013)): 0.00062
Henry solubility constant Hcp [3]: 0.00061
Henry solubility constant Hcp [4]: 0.00061
Henry solubility constant Hcp [5]: 0.00061
Henry solubility constant Hcp [6]: 0.00061

C1CCCCCC1 [cycloheptane]
Henry solubility constant Hcp (reference: Brockbank (2013)): 6.7e-05

CCCCCCCCCCc1ccccc1 [decylbenzene]
Henry solubility constant Hcp (reference: Brockbank (2013)): 7.6e-05

CCN(CC)c1ccccc1 [(diethylamino)-benzene]
Henry solubility constant Hcp (reference: Brockbank (2013)): 0.067

ClC1C(Cl)C(Cl)C(Cl)C(Cl)C1Cl (stereo not drawn) [β-1,2,3,4,5,6-hexachlorocyclohexane]
Henry solubility constant Hcp (reference: Xiao et al. (2004)): 27

OCCc1ccccc1 [2-phenylethanol]
Henry solubility constant Hcp (reference: Brockbank (2013)): 17

CCCOCC [ethyl propyl ether]
Henry solubility constant Hcp (reference: Howard and Meylan (1997)): 0.0077

Cc1cccc([N+](=O)[O-])c1 [3-nitrotoluene]
Henry solubility constant Hcp (reference: Brockbank (2013)): 0.27
Henry solubility constant Hcp (reference: Goldstein (1982)): 0.14

CCCCC=O [pentanal]
Henry solubility constant Hcp (reference: Brockbank (2013)): 0.066

[OH] [hydroxyl radical]
Henry solubility constant Hcp (reference: Jacob (1986)): 0.25

CCCCC [pentane]
Henry solubility constant Hcp (reference: Brockbank (2013)): 7.2e-06
